Data on 8 compounds can be found in US20230124862A1, “BISMUTH THIOL COMPOUNDS AND COMPOSITIONS AND METHODS OF TREATING MICROBIAL CO-INFECTIONS” (Microbion Corporation, priority 2020, published 2023).

In experiment [1] the test system is P. aeruginosa. Kind of experiment: Checkerboard FIC/FICI assay. In kind it is cell-based, Pseudomonas aeruginosa. The settings on record: for FICB / MICB: by checkerboard; for Drug B MIC: Colistin alone (checkerboard with BisEDT).
Experiment [2] has as its system Burkholderia cepacia complex. The experiment in a line: Checkerboard FIC/FICI assay. In kind it is cell-based, Burkholderia spp.
The test system of the next experiment is Candida krusei. The experiment in a line: Antifungal broth microdilution (Example 13). In kind it is cell-based. The settings on record: for MIC2: 50% inhibition; for MIC0: complete inhibition. Background: In broth dilution the organism is exposed to a series of concentrations in liquid medium.
In another experiment the test system is fungal pathogens. The experiment in a line: Antifungal activity, NIH/NIAID sponsored study. In kind it is cell-based. To be noted: for Antifungal activity, MIC 50%: 50% endpoint; for Antifungal activity, MIC 100% / MIC: 100% endpoint.
The next experiment has as its system Haemophilus influenzae. The experiment in a line: Broth microdilution MIC, Haemophilus influenzae clinical isolates. In kind it is cell-based.
Experiment [3] has as its system P. aeruginosa. Kind of experiment: Broth microdilution MIC (Example 10). In kind it is cell-based, Pseudomonas aeruginosa. To be noted: initial MIC testing.
[4] abbreviates: P. aeruginosa 6977, Aztreonam in combination with BisEDT.
Where [5] appears, read: B. cepacia 546, Aztreonam in combination with BisEDT, by checkerboard.
Where [6] appears, read: C. krusei ATCC 14243, Susceptible.
[7] abbreviates: C. krusei ATCC 96685, Susceptible.
The mark [8] stands for this setting: C. krusei MMX 7125, Susceptible.
The mark [9] stands for this setting: C. krusei MMX 7128, Susceptible.
[10] abbreviates: C. krusei MMX 7141, Susceptible.
The mark [11] stands for this setting: C. krusei MMX 7155, Susceptible.
Where [12] appears, read: C. krusei MMX 7563, Susceptible.
Setting [13] is: C. krusei MMX 9878, MICA-I, VORI-I.
[14] abbreviates: P. aeruginosa 6322, Colistin in combination with BisEDT.
[15] abbreviates: P. aeruginosa 6977, Colistin in combination with BisEDT.
[16] abbreviates: P. aeruginosa 7745, Colistin in combination with BisEDT.

Values after ≈ are worked out from the molar mass of the structure shown. Values joined by “and” are separate entries in the source; they are usually repeats but may differ in a detail not shown here. Equal entries are not always repeated. Where two headings read alike, the source gives them in different places. Some results are limits rather than exact numbers.

For the compound `C[C@H]1[C@H](NC(=O)/C(=N\OC(C)(C)C(=O)O)c2csc(N)n2)C(=O)N1S(=O)(=O)O` [Aztreonam], the FICB in the experiment on P. aeruginosa [1] (setting [4]) is 1; in experiment [2] (B. cenocepacia 548, FIC of Aztreonam (Drug B) in combination with BisEDT), 1; in experiment [2] (B. cenocepacia 813, FIC of Aztreonam (Drug B) in combination with BisEDT), 1; in experiment [2] (setting [5]), 1; in experiment [2] (B. cepacia 1793, FIC of Aztreonam (Drug B) in combination with BisEDT), 1; in experiment [2] (B. multivorans 1795, FIC of Aztreonam (Drug B) in combination with BisEDT), 1 and 2. Moreover, the MICB in the experiment on P. aeruginosa [1] (setting [4]) was 64 µg/mL; in experiment [2] (B. cenocepacia 548, MIC of Aztreonam (Drug B) in combination with BisEDT) it was 64 µg/mL; in experiment [2] (B. cenocepacia 813, MIC of Aztreonam (Drug B) in combination with BisEDT), 32 µg/mL; in experiment [2] (setting [5]) it was 32 µg/mL; in experiment [2] (B. cepacia 1793, MIC of Aztreonam (Drug B) in combination with BisEDT), 128 µg/mL; in experiment [2] (B. multivorans 1795, MIC of Aztreonam (Drug B) in combination with BisEDT), 16 µg/mL and 32 µg/mL. In addition, the MIC in experiment [2] (B. multivorans 1795, Aztreonam alone, panel with BisEDT, read-out: Drug B MIC) turned out to be 16 µg/mL.
With `C1C[S][Bi]([S]CC[S][Bi]2[S]CC[S]2)[S]1` [BisEBT], the MIC2 is 0.5 µg/mL with Candida krusei (C. krusei ATCC 6258, MICA-I); 0.5 µg/mL in the experiment on Candida krusei (setting [6]); 0.25 µg/mL in the experiment on Candida krusei (setting [7]); 0.5 µg/mL against Candida krusei (setting [8]); 0.5 µg/mL against Candida krusei (setting [9]); 0.5 µg/mL with Candida krusei (setting [10]). Moreover, the MIC2 against Candida krusei (C. krusei MMX 7153, MICA-R) is 0.5 µg/mL; against Candida krusei (setting [11]), 0.5 µg/mL; in the experiment with Candida krusei (setting [12]), 0.5 µg/mL; against Candida krusei (setting [13]) it was 0.5 µg/mL. For the same compound, the MIC0 against Candida krusei (C. krusei ATCC 6258, MICA-I) was 1 µg/mL; in the experiment on Candida krusei (setting [6]) it was 1 µg/mL; against Candida krusei (setting [7]) it was 0.5 µg/mL; with Candida krusei (setting [8]) it was 1 µg/mL; with Candida krusei (setting [9]), 1 µg/mL; in the experiment with Candida krusei (setting [10]), 1 µg/mL. The MIC0 against Candida krusei (C. krusei MMX 7153, MICA-R) was found to be 1 µg/mL; with Candida krusei (setting [11]) it was 1 µg/mL; in the experiment on Candida krusei (setting [12]) it was 1 µg/mL; in the experiment on Candida krusei (setting [13]) it was 1 µg/mL.
Regarding `C1C[S][Bi]([S]CC[S][Bi]2[S]CC[S]2)[S]1` [BisEQT], the “Antifungal activity, MIC 50%” value with fungal pathogens (A. fumigatus AF1) worked out at 8 µg/mL; in the experiment with fungal pathogens (A. fumigatus AF2) it was 4 µg/mL; in the experiment with fungal pathogens (A. fumigatus AF3), 4 µg/mL; in the experiment on fungal pathogens (C. albicans CA1) it was 4 µg/mL; in the experiment with fungal pathogens (C. albicans CA2), 2 µg/mL; in the experiment on fungal pathogens (C. albicans CA3) it was 4 µg/mL. In addition, the “Antifungal activity, MIC 50%” value amounted to 4 µg/mL in the experiment with fungal pathogens (C. auris Cau1); 2 µg/mL with fungal pathogens (C. auris Cau2); 4 µg/mL in the experiment on fungal pathogens (C. auris Cau3); 1 µg/mL in the experiment with fungal pathogens (C. krusei ATCC6258); 2 µg/mL in the experiment with fungal pathogens (C. neoformans CN1); 4 µg/mL in the experiment with fungal pathogens (C. neoformans CN2). For the same compound, the “Antifungal activity, MIC 50%” value in the experiment with fungal pathogens (C. neoformans CN3) worked out at 4 µg/mL; with fungal pathogens (C. parapsilosis ATCC22019), 1 µg/mL; in the experiment on fungal pathogens (P. variotii CLSI QC), 4 µg/mL; with fungal pathogens (R. arrhizus RA1), 8 µg/mL; in the experiment with fungal pathogens (R. arrhizus RA2) it was 4 µg/mL; with fungal pathogens (R. arrhizus RA3), 4 µg/mL. In addition, the “Antifungal activity, MIC 100%” value in the experiment on fungal pathogens (A. fumigatus AF1) was 16 µg/mL; in the experiment on fungal pathogens (A. fumigatus AF2), 16 µg/mL; with fungal pathogens (A. fumigatus AF3), 16 µg/mL; in the experiment with fungal pathogens (C. albicans CA1), 8 µg/mL; in the experiment with fungal pathogens (C. albicans CA2) it was 8 µg/mL; with fungal pathogens (C. albicans CA3), 16 µg/mL. Also, the “Antifungal activity, MIC 100%” value was 16 µg/mL in the experiment on fungal pathogens (C. auris Cau1); 8 µg/mL in the experiment on fungal pathogens (C. auris Cau2); 8 µg/mL with fungal pathogens (C. auris Cau3); 4 µg/mL with fungal pathogens (C. krusei ATCC6258); 8 µg/mL in the experiment on fungal pathogens (C. neoformans CN1); 8 µg/mL in the experiment with fungal pathogens (C. neoformans CN2). The “Antifungal activity, MIC 100%” value in the experiment on fungal pathogens (C. neoformans CN3) was 16 µg/mL; with fungal pathogens (C. parapsilosis ATCC22019), 4 µg/mL; in the experiment on fungal pathogens (P. variotii CLSI QC) it was 16 µg/mL; in the experiment with fungal pathogens (R. arrhizus RA1) it was 16 µg/mL; in the experiment with fungal pathogens (R. arrhizus RA2) it was 8 µg/mL; in the experiment on fungal pathogens (R. arrhizus RA3), 8 µg/mL.
In the case of `CO/N=C(\C(=O)N[C@@H]1C(=O)N2C(C(=O)O)=C(COC(N)=O)CS[C@H]12)c1ccco1` [CFA], the MIC against Haemophilus influenzae (H. influenzae MMX 0797, BLNAR) worked out at 4 µg/mL (≈ 9.43 µM); against Haemophilus influenzae (H. influenzae MMX 1224 (ATCC 49247)), 4 µg/mL (≈ 9.43 µM); in the experiment with Haemophilus influenzae (H. influenzae MMX 1302) it was 2 µg/mL (≈ 4.71 µM); with Haemophilus influenzae (H. influenzae MMX 1304) it was 64 µg/mL (≈ 151 µM); with Haemophilus influenzae (H. influenzae MMX 1740), 8 µg/mL (≈ 18.9 µM); in the experiment on Haemophilus influenzae (H. influenzae MMX 1741), 4 µg/mL (≈ 9.43 µM). Besides, the MIC in the experiment with Haemophilus influenzae (H. influenzae MMX 2795, BLNAR) worked out at 1 µg/mL (≈ 2.36 µM); in the experiment on Haemophilus influenzae (H. influenzae MMX 2796, BLNAR), 4 µg/mL (≈ 9.43 µM); in the experiment on Haemophilus influenzae (H. influenzae MMX 2798, BLNAR), 4 µg/mL (≈ 9.43 µM); in the experiment with Haemophilus influenzae (H. influenzae MMX 2799, BLNAR) it was 8 µg/mL (≈ 18.9 µM); in the experiment with Haemophilus influenzae (H. influenzae MMX 5458), 16 µg/mL (≈ 37.7 µM); in the experiment on Haemophilus influenzae (H. influenzae MMX 5461) it was 8 µg/mL (≈ 18.9 µM). The MIC in the experiment on Haemophilus influenzae (H. influenzae MMX 5469) amounted to 4 µg/mL (≈ 9.43 µM); with Haemophilus influenzae (H. influenzae MMX 5494), 0.5 µg/mL (≈ 1.18 µM); against Haemophilus influenzae (H. influenzae MMX 5495), 2 µg/mL (≈ 4.71 µM); with Haemophilus influenzae (H. influenzae MMX 5499) it was 1 µg/mL (≈ 2.36 µM).
Consider `O=C(O)c1cn(C2CC2)c2cc(N3CCNCC3)c(F)cc2c1=O` [CIP], for which the MIC in the experiment on P. aeruginosa [3] (P. aeruginosa isolate 1553 (TOB-R, AMK-R, CIP-R)) came out at 4 µg/mL (≈ 12.1 µM); against P. aeruginosa [3] (P. aeruginosa isolate 7745 (MEM-R, CIP-R, AZT-R)) it was 4 µg/mL (≈ 12.1 µM); in the experiment on P. aeruginosa [3] (P. aeruginosa isolate 7762 (MEM-I, CIP-I)) it was 7 µg/mL (≈ 21.1 µM); in the experiment on P. aeruginosa [3] (P. aeruginosa isolate 8798 (MEM-R, TOB-R, AMK-R, CIP-R, AZT-R, COL-R)), 4 µg/mL (≈ 12.1 µM); in the experiment on P. aeruginosa [1] (isolate 103 (ATCC 25922), during FIC testing, each agent tested alone for QC, one replicate), 1 µg/mL.
Take `CC[C@@H]([C@H](C)O)n1ncn(-c2ccc(N3CCN(c4ccc(OC[C@@H]5CO[C@@](Cn6cncn6)(c6ccc(F)cc6F)C5)cc4)CC3)cc2)c1=O` [Posaconazole]: the MIC was no more than 0.03 µg/mL with fungal pathogens (Paecilomyces variotii, read-out: Antifungal activity, MIC 100%, P. variotii CLSI QC); 4 µg/mL (≈ 5.71 µM) in the experiment with fungal pathogens (Rhizopus arrhizus, read-out: Antifungal activity, MIC 100%, R. arrhizus RA1); 0.06 µg/mL (≈ 0.0856 µM) with fungal pathogens (Rhizopus arrhizus, read-out: Antifungal activity, MIC 100%, R. arrhizus RA2); 0.125 µg/mL (≈ 0.178 µM) with fungal pathogens (Rhizopus arrhizus, read-out: Antifungal activity, MIC 100%, R. arrhizus RA3).
For `NC[C@H]1O[C@H](O[C@H]2[C@H](O)[C@@H](O[C@H]3O[C@H](CO)[C@@H](O)[C@H](N)[C@H]3O)[C@H](N)C[C@@H]2N)[C@H](N)C[C@@H]1O` [Topramycin], the FICB in experiment [2] (B. cepacia 546, Topramycin in combination with BisEDT, by checkerboard) is 0.5.
Turning to Colistin, the “Drug B MIC” value in the experiment with P. aeruginosa [1] (P. aeruginosa 6322) is 0.5 µg/mL; with P. aeruginosa [1] (P. aeruginosa 6977), 1 µg/mL; with P. aeruginosa [1] (P. aeruginosa 7745), 0.5 µg/mL; in the experiment on P. aeruginosa [1] (P. aeruginosa 9108), 0.0005 µg/mL; in the experiment with P. aeruginosa [1] (isolate 8798 (organism name not given)) it was greater than 0.256 µg/mL. For the same compound, the FICB was determined as 1 with P. aeruginosa [1] (setting [14]); 1 in the experiment with P. aeruginosa [1] (setting [15]); 1 in the experiment on P. aeruginosa [1] (setting [16]); 1 in experiment [2] (B. multivorans 1795, FIC of Colistin (Drug B) in combination with BisEDT). Moreover, the MICB was found to be 0.5 µg/mL in the experiment on P. aeruginosa [1] (setting [14]), 1 µg/mL with P. aeruginosa [1] (setting [15]) and 0.5 µg/mL in the experiment on P. aeruginosa [1] (setting [16]).
